From BigSolDB 2.1

O=C(/C=C/c1ccc(O)c(O)c1)O[C@H](Cc1ccc(O)c(O)c1)C(=O)O
solubility (mole fraction)
Settings	293.15 K	298.15 K	303.15 K	308.15 K	313.15 K
in ethyl acetate	0.0345	0.0466	0.0506	0.0588	0.0722
in methyl acetate	0.0363	0.049	0.0533	0.0619	0.0764
